From EP2071024A1, “Peptides of human prostatic acid phosphatase enhancing viral infectivity” (Pharis Biotec GmbH, priority 2007, dated 2009)
Ends that are not written are not given here.

Test system: peripheral blood mononuclear cells (PBMC)
Test: MTT cytotoxicity assay
Type: cell-based
Settings: stimulated PBMC, incubated for 3 days, high concentrations, listed as monomeric PAP85-120
Procedure: To determine possible cytotoxic effects of PAP85-120 fibrils, serial dilutions of fibrils were added to stimulated peripheral blood mononuclear cells (PBMC) and incubated for 3 days (see example 8). Thereafter 10 µl of a 5 mg/ml MTT (Sigma; # M2128) solution was added and cells were incubated for 4 h at 37°C. In living cells mitochondrial dehydrogenases […] the yellow MTT salt to blue formazan crystals (Schiff et al.; 1985). After dissolving the crystals in 1:1 Ethanol/DMSO, samples containing living cells appear blue whereas samples from dead cells are clear. Optical density (OD) was measured at 560/650 nm using a photometer (Molecular Devices).
Fig. 5: PAP85 is non cytotoxic. Peripheral blood mononuclear cells (PBMC) were stimulated with phytohemagglutinine (2 µg/ml) and Interleukin 2 (10 µg/ml) for three days. Thereafter cells were sown out in 96 well dishes containing the indicated concentrations of freshly dissolved monomeric PAP85 or fibrillar PAP85 and incubated for 3 days. Cytotoxicity was determined by detecting dehydrogenase activity in living cells using the MTT assay. Values represent average values +/- SD derived from triplicates.

Sequence: IRKRYRKFLNESYKHEQVYIRSTDVDRTLMSAMTNL [freshly dissolved PAP85-120]
- cell viability / cytotoxic effects: do not exert cytotoxic effects
